Source: ChEMBL document CHEMBL1156829 (Proc Natl Acad Sci U S A, 2008)
pEC50: −log10 of the molar value.

Legend:
Plasmodium falciparum [1] = assay: NOVARTIS: Inhibition of Plasmodium falciparum 3D7 (drug-susceptible) proliferation in erythrocyte-based infection assay; type: functional, organism-based; details: Plasmodium falciparum, 3D7
Plasmodium falciparum [2] = assay: NOVARTIS: Inhibition of Plasmodium falciparum W2 (drug-resistant) proliferation in erythrocyte-based infection assay; type: functional, organism-based; details: Plasmodium falciparum, W2; read-out: EC50
[3] = NOVARTIS: Cytotoxicity against human hepatocellular carcinoma cell line (Huh7); type: toxicity, cell-based, Huh-7; details: Huh7 cells (hepatocellular carcinoma cell line)

Row | Compound | pEC50 (Plasmodium falciparum [1]) | pEC50 (Plasmodium falciparum [2]) | CC50 [3]
1 | COc1ccc(C2C3=C(O)CC(C)(C)CC3=Nc3[nH]nc(C)c32)cc1 (centres undefined) | < 5.48 | < 4.90 | > 100 µM
2 | COC(=O)C1=C(C)N/C(=C\c2cc(C)n(-c3cc(C)ccc3OC)c2C)C1=O | 6.40 | < 5.90 | > 10 µM
3 | CN(C)c1ccc(/C=C2/SC(=Nc3ccc(O)cc3)NC2=O)cc1 | 5.55 | < 4.90 | > 100 µM
4 | Cc1[nH]n(-c2ccccc2)c(=O)c1C(=O)CN(C(=O)c1ccc2c(c1)OCO2)C(C)C | < 6.33 | < 5.90 | > 10 µM
5 | O=C(CNC(=O)c1ccccc1)Oc1ccc(Cl)cc1 | 6.27 | < 5.90 | > 10 µM
6 | O=S1(=O)CCC(O)c2ccsc21 (centres undefined) | 5.38 | < 4.90 | > 100 µM
7 | Cc1ccnc(Nc2nc(-c3ccc(Cl)cc3)cs2)c1 | 5.35 | < 4.90 | > 100 µM
8 | O=C(Nc1cccnc1)c1cc(-c2cccnc2)nc2ccc(Cl)cc12 | 5.40 | < 4.90 | > 100 µM
9 | COc1ccc(C2N=C(N)N=C(N)N2c2ccc(Cl)cc2)cc1OC (centres undefined) | 6.49 | < 5.90 | > 10 µM
10 | CS(=O)(=O)c1cnc2ncnn2c1C1CCCN(C(=O)c2ccccn2)C1 (centres undefined) | 6.51 | < 5.90 | > 10 µM
11 | CCOC(=O)C1=C(C)N(c2ccc(OCC)cc2)C(=O)C1=Cc1ccc(C(C)C)cc1 | 5.46 | < 4.90 | > 100 µM
12 | Cn1nc(C(C)(C)C)cc1C(=O)N1CCCN1C(=O)CNC(=O)c1ccco1 | < 6.47 | < 5.90 | > 10 µM
13 | Cc1ccc(C(=O)CSc2nc(N)c(C#N)c(-c3cccs3)c2C#N)cc1 | < 5.30 | < 4.90 | > 100 µM
14 | C[N+]1(CCOC(=O)CCC(=O)OCC[N+]2(C)CCCCCC2)CCCCCC1 | < 6.32 | < 5.90 | > 10 µM
15 | COc1ccc2c(c1)C(C)=CC(C)(C)N2C(=O)CSc1nnc(-c2ccc(C)cc2)o1 | 6.33 | < 5.90 | > 10 µM
16 | COC(=O)c1c(-c2c(F)cccc2Cl)noc1/C=C/Nc1ccc(OC)cc1 | 6.37 | < 5.90 | > 10 µM
17 | CCN1CCN(c2cc(C)c3cc(NC(=O)/C=C/c4cc(OC)ccc4OC)ccc3n2)CC1 | 6.40 | < 5.90 | > 10 µM
18 | N#CC(C#N)C(/C(Sc1ccc([N+](=O)[O-])cc1)=C(/O)c1ccccc1)c1cccs1 (centres undefined) | < 6.39 | < 5.90 | > 10 µM
19 | COc1ccc(-c2ccc(C=NNC(=O)CNC(=O)c3ccc4c(c3)OCO4)o2)cc1Cl | < 6.43 | < 5.90 | > 10 µM
20 | Cc1cn2c3ccccc3n(CCN3CCOCC3)c2n1 | < 5.61 | < 4.90 | > 100 µM
21 | O=C(NCCc1ccccc1)c1cnc(NCCCN2CCCC2)nc1Nc1ccccc1 | 6.27 | < 5.90 | > 10 µM
22 | O=C(CCNS(=O)(=O)c1ccc(Br)s1)N1CCc2ccccc2C1 | < 5.25 | < 4.90 | > 100 µM
23 | CCc1c(C#N)c(N)nc2sc(C(=O)c3ccc(Br)cc3)c(N)c12 | 5.26 | < 4.90 | > 100 µM
24 | CCCC(C(=O)NCCC(C)C)N(C(=O)c1snc(C(N)=O)c1N)c1ccc(C(C)C)cc1 (centres undefined) | 5.26 | < 4.90 | > 100 µM
25 | CC(C)C1N=C2c3ccccc3N=C(SCC(=O)Nc3cc(C(F)(F)F)ccc3Cl)N2C1=O (centres undefined) | 5.23 | < 4.90 | > 100 µM
26 | CCCc1cc2c(=O)c(-c3ccc4c(c3)OCO4)c(CC)oc2cc1OC(C)C | 5.23 | < 4.90 | > 100 µM
27 | CCOc1ccc2nc(Sc3nc(Nc4cccc(C)c4)nc(Nc4cccc(C)c4)n3)sc2c1 | 5.24 | < 4.90 | > 100 µM

Row | Compound | pEC50 (Plasmodium falciparum [1]) | pEC50 (Plasmodium falciparum [2]) | CC50 [3]
28 | CN(Cc1ccccc1)C(=O)CSc1nc(NCc2ccccc2)c2ccccc2n1 | < 5.52 | < 4.90 | > 100 µM
29 | O=C1Nc2ccccc2Sc2ccccc21 | < 5.52 | < 4.90 | > 100 µM
30 | CCOc1ccc2c(C)nc(NC(N)=NC(C)=O)nc2c1 | 5.52 | < 4.90 | > 100 µM
31 | CC1CN(C(=O)C(Cc2c[nH]c3ccccc23)NC(=O)CCl)CCN1C(=O)Nc1ccccc1 (centres undefined) | 6.54 | < 5.90 | > 10 µM
32 | CCCCN(CC)C(=O)CSc1nc2ccccc2c(=O)n1Cc1ccco1 | < 6.23 | < 5.90 | > 10 µM
33 | CCOC(=O)c1c(C)[nH]c(C)c1S(=O)(=O)N1CCCC(C(=O)N2CCN(c3cccc(C)c3C)CC2)C1 (centres undefined) | 5.28 | < 4.90 | > 100 µM
34 | COC(=O)c1cc(NC(=S)NC(=O)c2c(OC)cccc2OC)cc(C(=O)OC)c1 | 5.29 | < 4.90 | > 100 µM
35 | Cc1ccc(N2C(=O)C3C(C2=O)C2(c4ccccc4)C(=O)C3(c3ccccc3)C(c3ccccc3)=C2c2ccccc2)c([N+](=O)[O-])c1 (centres undefined) | 5.58 | < 4.90 | > 100 µM
36 | COc1cc(C(=O)Nc2nnc(-c3ccccc3)o2)cc(OC)c1OC | 5.29 | < 4.90 | > 100 µM
37 | COC(=O)c1ccc(N2C(=O)C3C(C2=O)C2(c4ccccc4)C(=O)C3(c3ccccc3)C(c3ccc(OC)cc3)=C2c2ccc(OC)cc2)cc1 (centres undefined) | 5.32 | < 4.90 | > 100 µM
38 | CC1=NNC(=O)C1C(c1ccc(Cl)cc1Cl)C1C(=O)NN=C1C (centres undefined) | < 6.32 | < 5.90 | > 10 µM
39 | CCCN1CCC(c2nc(N3CCOCC3)ncc2-c2cc(C)no2)CC1 | < 6.36 | < 5.90 | > 10 µM
40 | CN(C)CCNC(=O)c1c[nH]c2ccc(S(=O)(=O)N3CCc4ccccc43)cc2c1=O | 6.38 | < 5.90 | > 10 µM
41 | COC(=O)c1cn2c(=O)c3ccccc3nc2c2ccccc12 | < 6.41 | < 5.90 | > 10 µM
42 | CCOC(=O)c1ccc(N(C(=O)CSCC(=O)Nc2cc(C)on2)C(C(=O)NC2CCCCC2)c2ccc(O)c(O)c2)cc1 (centres undefined) | < 6.50 | < 5.90 | > 10 µM
43 | CCCCN(CCCC)S(=O)(=O)c1nc(C)c(Cl)c(C)c1C#N | 5.51 | < 4.90 | > 100 µM
44 | O=C1c2cccc(N3CCN(Cc4cccn4-c4nccs4)CC3)c2C(=O)N1Cc1ccc(Cl)cc1 | 5.26 | < 4.90 | > 100 µM
45 | O=C(CCCOc1ccc(Cl)cc1Cl)NCCCn1ccnc1 | 6.32 | < 5.90 | > 10 µM
46 | COc1ccc(OC)c(NC2=C(Cl)C(=O)N(c3ccc(C)c(Cl)c3)C2=O)c1 | 5.29 | < 4.90 | > 100 µM
47 | COc1ccc(C(=O)n2nc(N)c3cc4ccc(C)cc4nc32)cc1[N+](=O)[O-] | < 5.27 | < 4.90 | > 100 µM
48 | Cc1cc([N+](=O)[O-])ccc1-c1ccc(C(=O)Nc2ccc(-c3nc4ccccc4[nH]3)cc2)o1 | 5.55 | < 4.90 | > 100 µM
49 | O=C(c1cnsn1)N1CCCC(COc2cccc(CN3CCC(Cc4ccccc4)CC3)c2)C1 (centres undefined) | < 5.44 | < 4.90 | > 100 µM
50 | NC(=O)c1ccc(-n2nnnc2SCc2ccc(Cl)cc2)cc1 | 5.55 | < 4.90 | > 100 µM
51 | O=C(NCc1cc2cc3c(cc2nc1Cl)OCO3)c1ccco1 | < 6.23 | < 5.90 | > 10 µM
52 | Cn1c(=O)c(Cl)c2c3c(c(Cl)ccc31)C(=O)c1ccccc1-2 | < 6.53 | < 5.90 | > 10 µM
53 | Nc1nc(N)c2c(OCc3ccc(C(F)(F)F)cc3)cccc2n1 | 6.11 | 6.01 | > 10 µM
